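Compound exposure: 48 hours, 5 concentrations, 96-well plates. The concentration for 50% growth inhibition is given as GI50. TGI marks complete inhibition of growth.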
Assays:
Assay in all cases: NCI tumour cell line growth inhibition, 48 h; in the data active = GI50 below about 0.43 µM; inactive = the rest
[1] = test system: NCI-H460 lung
[2] = test system: DU-145 prostate
[3] = test system: TK-10 renal
[4] = test system: HL-60(TB) leukemia
[5] = test system: SNB-75 CNS
[6] = test system: BT-549 breast
[7] = test system: HCT-116 colon
[8] = test system: RXF 393 renal
[9] = test system: SK-MEL-2 melanoma
[10] = test system: KM12 colon
[11] = test system: UACC-62 melanoma
[12] = test system: HS 578T breast
[13] = test system: COLO 205 colon
[14] = test system: SF-295 CNS
[15] = test system: T-47D breast
[16] = test system: MOLT-4 leukemia
[17] = test system: PC-3 prostate
[18] = test system: HT29 colon
[19] = test system: OVCAR-5 ovarian
[20] = test system: A549 NSCLC
[21] = test system: HOP-92 NSCLC
[22] = test system: MDA-MB-435
[23] = test system: IGROV1 ovarian
[24] = test system: SNB-19 CNS
[25] = test system: CCRF-CEM leukemia
[26] = test system: NCI/ADR-RES ovarian
[27] = test system: SF-268 CNS
[28] = test system: LOX IMVI melanoma
[29] = test system: UACC-257 melanoma
[30] = test system: MALME-3M melanoma
[31] = test system: HCT-15 colon
[32] = test system: NCI-H522 lung
[33] = test system: SK-MEL-28 melanoma
[34] = test system: SF-539 CNS
[35] = test system: MDA-MB-231 breast
[36] = test system: SK-MEL-5 melanoma
[37] = test system: CAKI-1 renal
[38] = test system: 786-0 renal
[39] = test system: ACHN renal
[40] = test system: SW-620 colon
[41] = test system: OVCAR-3 ovarian
[42] = test system: SN12C renal
[43] = test system: MCF7 breast
[44] = test system: OVCAR-8 ovarian
[45] = test system: SK-OV-3 ovarian
[46] = test system: NCI-H23 lung
[47] = test system: U251 CNS
[48] = test system: A498 renal
[49] = test system: K-562 leukemia
[50] = test system: HCC-2998 colon
[51] = test system: SR leukemia
[52] = test system: UO-31 renal
[53] = test system: HOP-62 NSCLC

CCOC(=O)C1=C(Nc2ccc(OC)cc2)C(N)=NC1=N
inactive: GI50 [1] 3.73 µM | GI50 [2] 3.49 µM | GI50 [3] 8.31 µM | GI50 [4] 3.51 µM | GI50 [5] 3.03 µM | GI50 [6] 5.37 µM | GI50 [7] 2.45 µM | GI50 [8] 1.72 µM | GI50 [9] 8.03 µM | GI50 [10] 2.64 µM | GI50 [11] 2.85 µM | GI50 [12] 4.17 µM | GI50 [13] 3.07 µM | GI50 [14] 2.71 µM | GI50 [15] > 100 µM | GI50 [16] 4.38 µM | GI50 [17] 3.26 µM | GI50 [18] 2.9 µM | GI50 [19] 5.09 µM | GI50 [20] 3.73 µM | GI50 [21] 2.56 µM | GI50 [23] 5.5 µM | GI50 [24] 3.68 µM | GI50 [25] 3.24 µM | GI50 [26] 3.38 µM | GI50 [27] 7.87 µM | GI50 [28] 5.47 µM | GI50 [29] > 100 µM | GI50 [30] 7.29 µM | GI50 [31] 1.83 µM | GI50 [32] 3.12 µM | GI50 [33] 6.89 µM | GI50 [34] 2.15 µM | GI50 [35] 4.02 µM | GI50 [36] 0.57 µM | GI50 [37] 5.84 µM | GI50 [38] 5.04 µM | GI50 [39] 8.84 µM | GI50 [40] 3.95 µM | GI50 [41] 2.49 µM | GI50 [42] 5.14 µM | GI50 [43] 0.587 µM | GI50 [44] 4.63 µM | GI50 [45] 2.99 µM | GI50 [46] 4.84 µM | GI50 [47] 3.81 µM | GI50 [48] 2.71 µM | GI50 [49] 3.02 µM | GI50 [50] 3.94 µM | GI50 [51] 2.31 µM | GI50 [52] 6.29 µM | GI50 [53] 6.23 µM
10.1 µM: TGI [13]
6.5 µM: TGI [41]
8.32 µM: TGI [14]
1.5 µM: TGI [22]
55.8 µM: TGI [36]
6.47 µM: TGI [8]
8.11 µM: TGI [48]
18.1 µM: TGI [45]
> 100 µM: TGI [1] | TGI [2] | TGI [3] | TGI [4] | TGI [5] | TGI [6] | TGI [7] | TGI [9] | TGI [10] | TGI [11] | TGI [12] | TGI [15] | TGI [16] | TGI [17] | TGI [18] | TGI [19] | TGI [20] | TGI [21] | TGI [23] | TGI [24] | TGI [25] | TGI [26] | TGI [27] | TGI [28] | TGI [29] | TGI [30] | TGI [31] | TGI [32] | TGI [33] | TGI [35] | TGI [37] | TGI [38] | TGI [39] | TGI [40] | TGI [42] | TGI [43] | TGI [44] | TGI [46] | TGI [47] | TGI [49] | TGI [50] | TGI [51] | TGI [52] | TGI [53]
6.27 µM: TGI [34]
active: GI50 [22] 0.336 µM
